Assay results: article PMC7012052, “Discovery of antimicrobial compounds targeting bacterial type FAD synthetases” (Journal of Enzyme Inhibition and Medicinal Chemistry, 2017)
Values after ≈ are worked out from the molar mass of the structure shown. Like-named read-outs stand apart in the source and are kept apart here. Marks after values point to notes of the source that are not given here.

Experiments:
[1] = test system: M. tuberculosis ATCC 27,294; experiment: MIC by resazurin microplate assay (broth microdilution); type: cell-based, Mycobacterium tuberculosis
CaFADS FMNAT activity = target: T1, CaFADS FMNAT activity (Corynebacterium ammoniagenes, UniProt Q59263); experiment: FMNAT activity of CaFADS: residual activity, IC50, inhibition mechanism (HPLC); type: biochemical; conditions: for Inhibition mechanism / Ki: CaFADS FMNAT; for Ki: global Lineweaver–Burk fit; for remaining activity at 250 µM: pH 7, read-out: % Residual FMNAT activity; for remaining activity at 50 µM: read-out: Residual activity (FMNAT)
T1 construct: Recombinant CaFADS was overexpressed in BL21 (DE3) E. coli cells and purified as previously described; made in house; host or cells: E. coli BL21 (DE3)
T1 sequence (Q59263 whole entry): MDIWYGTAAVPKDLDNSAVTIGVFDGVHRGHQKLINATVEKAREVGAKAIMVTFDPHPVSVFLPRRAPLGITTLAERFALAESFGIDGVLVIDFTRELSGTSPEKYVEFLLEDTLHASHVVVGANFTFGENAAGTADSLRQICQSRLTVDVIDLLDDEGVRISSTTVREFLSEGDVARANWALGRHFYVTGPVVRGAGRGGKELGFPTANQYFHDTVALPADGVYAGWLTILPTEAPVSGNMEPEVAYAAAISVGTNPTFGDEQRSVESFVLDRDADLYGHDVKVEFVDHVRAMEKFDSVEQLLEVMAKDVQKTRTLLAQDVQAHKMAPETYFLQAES
Experimental: (§1) Then, the RFK and FMNAT reactions were individually assayed in the presence of the HTS hits at 25 °C. Reaction mixtures contained 50 µM ATP, 5 µM RF, 0.4 µM CaFADS in 20 mM PIPES, pH 7.0, 0.8 mM MgCl2, when assaying the RFK activity, and 50 µM ATP, 10 µM FMN, 0.4 µM CaFADS in 20 mM PIPES, pH 7.0, 10 mM MgCl2 when measuring the FMNAT reaction. […] Finally, reactions were stopped by boiling the samples at 100 °C for 5 min, and the precipitated protein was eliminated through centrifugation. The transformation of RF into FMN or FAD was evaluated through flavins separation by HPLC, as previously described. […] When assaying the HTS hits against the FMNAT activity of SpnFADS, similar conditions were used but samples contained 3 mM sodium dithionite to maintain the flavin in its reduced state. Data were processed as previously reported. All the experiments were performed in triplicate.
(§2) Experiments were performed and analysed through HPLC as described above. Positive controls (without any hit compound) were included in every reaction set. DMSO concentration was kept at 2.5% in all samples. All the experiments were performed in triplicate.
All the experiments were carried out in 20 mM PIPES, 10 mM MgCl2, pH 7.0, 2.5% DMSO at 25 °C, being the final reaction volume 500 µl. The reactions were initiated by addition of CaFADS at a final concentration of ∼40 nM, followed by 1 min incubation. The flavin composition of the supernatant was analysed as previously described. All the experiments were performed in triplicate. The effect of the inhibitors on Km and Vmax was determined by fitting the data sets to the Michaelis–Menten model. Additionally, data were globally fit to Lineweaver–Burk equations for competitive, uncompetitive, non-competitive or mixed inhibition, yielding Ki, as well as Ki′ when applying, for each compound (Equations (1–4), respectively).

CaFADS RFK activity = target: T2, CaFADS RFK activity (Corynebacterium ammoniagenes, UniProt Q59263); experiment: RFK activity of CaFADS in the presence of HTS hits (flavins separated by HPLC); type: biochemical; conditions: pH 7, read-out: % Residual RFK activity
T2 construct: Recombinant CaFADS was overexpressed in BL21 (DE3) E. coli cells and purified as previously described; made in house; host or cells: E. coli BL21 (DE3)
T2 sequence (Q59263 whole entry): as above
Experimental: as §1

[2] = test system: C. ammoniagenes ATCC 6872; experiment: MIC by resazurin microplate assay (broth microdilution); type: cell-based, Corynebacterium ammoniagenes; conditions: Corynebacterium ammoniagenes, ATCC6872, 16 h
CaFADS = target: T3, CaFADS (Corynebacterium ammoniagenes, UniProt Q59263); experiment: Isothermal titration calorimetry (ITC) of hits binding to CaFADS; conditions: ITC 25 °C
T3 construct: Recombinant CaFADS was overexpressed in BL21 (DE3) E. coli cells and purified as previously described; made in house; host or cells: E. coli BL21 (DE3)
T3 sequence (Q59263 whole entry): as above
Experimental: ITC experiments were performed to characterise the protein’s affinity for the selected compounds, as also the thermodynamic parameters that drive the interaction. Experiments were carried out in an AutoITC200 (MicroCal) thermostated at 25 °C. In these experiments, ∼400 µM of each compound were used to titrate ∼25 µM CaFADS contained in a 200 µL cell. However, when saturation of the protein was not reached, higher concentrations of compounds were employed. The titrations were performed by stepwise injections of the titrating compound. Up to 19 injections of 2 µl were added to the cell sample and mixed using a 1000 rpm stirrer syringe. The compounds and the protein were dissolved in 20 mM PIPES, pH 7.0, 10 mM MgCl2 and degassed prior to titration. DMSO was added to the protein and ligand samples, until reach a final concentration of 3%. The association constant (Ka), the enthalpy variation (ΔH) and the binding stoichiometry (N), were obtained through non-lineal regression of the data to a model for one or two independent binding sites, implemented in Origin 7.0 (OriginLab) as previously described[27]^,[29]. The entropic contribution (−TΔS), the Gibbs free energy (ΔG) and the dissociation constant (Kd) were obtained through essential thermodynamic equations.

SpnFADS FMNAT activity = SpnFADS FMNAT activity (Streptococcus pneumoniae, UniProt A0A0H2UPY5); experiment: biochemical
Chain of SpnFADS FMNAT activity (A0A0H2UPY5 entry or part of it): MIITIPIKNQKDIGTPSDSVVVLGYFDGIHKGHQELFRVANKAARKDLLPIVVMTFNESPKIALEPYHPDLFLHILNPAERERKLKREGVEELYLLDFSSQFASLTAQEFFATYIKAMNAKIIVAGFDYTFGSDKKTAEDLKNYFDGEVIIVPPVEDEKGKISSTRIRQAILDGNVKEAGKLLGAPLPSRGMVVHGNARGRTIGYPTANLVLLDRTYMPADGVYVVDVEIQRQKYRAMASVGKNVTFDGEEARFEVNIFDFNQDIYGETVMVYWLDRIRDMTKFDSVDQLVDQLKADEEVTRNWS
Experimental: as §1, §2

SpnFADS RFK activity = SpnFADS RFK activity (Streptococcus pneumoniae, UniProt A0A0H2UPY5); experiment: biochemical; conditions: for IC50: compounds assayed 0–100 μM, 25 °C
Chain of SpnFADS RFK activity (A0A0H2UPY5 entry or part of it): as above
Experimental: as §1, §2

S. pneumoniae ATCC 49619 = experiment: MIC by resazurin microplate assay (broth microdilution); type: cell-based, Streptococcus pneumoniae
[3] = saturating ATP (regarding the FMN substrate)
[4] = saturating FMN (regarding the ATP substrate)
[5] = saturating ATP, varying FMN, inhibitor 0.2 μM
[6] = saturating ATP, varying FMN, inhibitor […]
[7] = saturating FMN, varying ATP, inhibitor 0.2 μM
[8] = saturating FMN, varying ATP, inhibitor 0.4 μM
[9] = saturating FMN, varying ATP, inhibitor […]
[10] = for 24: Site 1–2, average value where N ≈ 2
[11] = read-out: RFK activity Res. activity

| Compound | IC50 (CaFADS FMNAT activity) [µM] | Inhibition mechanism (CaFADS FMNAT activity; [3]) | Inhibition mechanism (CaFADS FMNAT activity; [4]) | Ki (CaFADS FMNAT activity; saturating ATP, varying FMN) [µM] | Ki (CaFADS FMNAT activity; saturating FMN, varying ATP) [µM] | remaining activity at 250 µM (CaFADS FMNAT activity) [%] | remaining activity at 50 µM (CaFADS FMNAT activity) [%] | apparent kcat (CaFADS FMNAT activity; [5]) [s⁻¹] | apparent kcat (CaFADS FMNAT activity; [6]) [s⁻¹] | apparent kcat (CaFADS FMNAT activity; [7]) [s⁻¹] | apparent kcat (CaFADS FMNAT activity; [8]) [s⁻¹] | apparent kcat (CaFADS FMNAT activity; [9]) [s⁻¹] | remaining activity at 250 µM (CaFADS RFK activity) [%] | N (binding stoichiometry) (CaFADS; 3% DMSO, for 24: Site 1–2) | ΔG (CaFADS; [10]) | ΔH (CaFADS; [10]) | −TΔS (CaFADS; [10]) | also measured |
| --- | --- | --- | --- | --- | --- | --- | --- | --- | --- | --- | --- | --- | --- | --- | --- | --- | --- | --- |
| COc1cc(-c2ccc(/N=N/c3ccc4c(S(=O)(=O)O)cc(S(=O)(=O)O)c(N)c4c3O)c(OC)c2)ccc1/N=N/c1ccc2c(S(=O)(=O)O)cc(S(=O)(=O)O)c(N)c2c1O [HTS hit 24, Chicago sky blue 6B] | 0.4 ± 0.1 | Non-competitive | Uncompetitive | 0.07 ± 0.01 | 0.08 ± 0.03 | ≤ 5 | 3.6 ± 0.2 | 0.163 ± 0.0217 | 0.405 ± 0.0683 | 0.0717 ± 0.0067 | 0.03 ± 0.0017 | 0.12 ± 0.0067 | ≥ 75 | ≈ 2 | −8.1 ± 1.0^a kcal/mol | −4.2 ± 0.5^a kcal/mol | −3.9 ± 0.5^a kcal/mol | MIC ([1]; Mycobacterium tuberculosis, ATCC27, 144 h; read-out: Minimal inhibitory concentration (MIC) M. tuberculosis): 16 to 32 µM (≈ 14.5 to 29 µg/mL); apparent kcat (CaFADS FMNAT activity; saturating ATP, varying FMN, inhibitor 0.4 μM): 0.0933 ± 0.01 s⁻¹; apparent kcat (CaFADS FMNAT activity; saturating ATP, varying FMN, inhibitor 0.6 μM): 0.095 ± 0.0217 s⁻¹; apparent kcat (CaFADS FMNAT activity; saturating FMN, varying ATP, inhibitor 0.04 μM): 0.375 ± 0.08 s⁻¹; MIC ([2]; read-out: Minimal inhibitory concentration (MIC) C. ammoniagenes): 16 to 32 µM (≈ 14.5 to 29 µg/mL); ΔG (CaFADS; Site 3): -5.2 ± 0.7 kcal/mol; ΔH (CaFADS; Site 3): 18.4 ± 2.2 kcal/mol; −TΔS (CaFADS; Site 3): -23.6 ± 1.9 kcal/mol; N (binding stoichiometry) (CaFADS; Site 3 (low affinity site)): ≈ 1; Kd (CaFADS; Kd, 3% DMSO, for 24: Site 1–2, average value for two hit molecules where N ≈ 2): 1.1 ± 0.1 µM; Kd (CaFADS; Kd, Site 3 (low affinity site)): 161 ± 20 µM; activity at 100 µM (SpnFADS FMNAT activity; SpnFADS, 100 μM of each compound, 25 °C, n = 3, mean ± SD, read-out: FMNAT activity Res. activity): 0%; IC50 (SpnFADS FMNAT activity; SpnFADS, compounds assayed 0–100 μM, 25 °C, read-out: FMNAT activity IC50): 70 ± 6 µM; IC50 (SpnFADS RFK activity; SpnFADS, read-out: RFK activity IC50): > 100 µM; activity at 100 µM (SpnFADS RFK activity; [11]): 84 ± 9%; MIC (S. pneumoniae ATCC 49619; Streptococcus pneumoniae, ATCC49619, 10 h; read-out: Minimal inhibitory concentration (MIC) S. pneumoniae): > 64 µM |
| Cc1cc2c(C(C)C)c(O)c(O)c(C=O)c2c(O)c1-c1c(C)cc2c(C(C)C)c(O)c(O)c(C=O)c2c1O [HTS hit 27, gossypol] | 0.5 ± 0.1 | Non-competitive | Competitive | 0.08 ± 0.01 | 0.06 ± 0.01 | ≤ 5 | 6.9 ± 0.8 | 0.252 ± 0.025 | 0.167 ± 0.013 | 0.37 ± 0.0233 | 0.302 ± 0.0267 | 0.285 ± 0.055 | ≥ 75 | ≈ 2 | −8.4 ± 0.9^a kcal/mol | −3.1 ± 0.1^a kcal/mol | −5.3 ± 0.4^a kcal/mol | MIC ([1]; Mycobacterium tuberculosis, ATCC27, 144 h, read-out: Minimal inhibitory concentration (MIC) M. tuberculosis): > 64 µM; apparent kcat (CaFADS FMNAT activity; saturating ATP, varying FMN, inhibitor 0.05 μM): 0.36 ± 0.0483 s⁻¹; apparent kcat (CaFADS FMNAT activity; saturating ATP, varying FMN, inhibitor 0.1 μM): 0.268 ± 0.0283 s⁻¹; apparent kcat (CaFADS FMNAT activity; saturating ATP, varying FMN, inhibitor 1 μM): 0.108 ± 0.0033 s⁻¹; apparent kcat (CaFADS FMNAT activity; saturating FMN, varying ATP, inhibitor 0.1 μM): 0.38 ± 0.0217 s⁻¹; apparent kcat (CaFADS FMNAT activity; saturating FMN, varying ATP, inhibitor 1 μM): 0.208 ± 0.0083 s⁻¹; MIC ([2]; read-out: Minimal inhibitory concentration (MIC) C. ammoniagenes, assayed 0.125–64 μM, 16 h at 37 °C, BHI): ~64 µM (≈ 33.2 µg/mL); Kd (CaFADS; 3% DMSO, for 24: Site 1–2, average value for two hit molecules where N ≈ 2, read-out: Kd): 0.7 ± 0.07 µM; IC50 (SpnFADS FMNAT activity): 51 ± 6 µM; remaining activity at 100 µM (SpnFADS FMNAT activity; read-out: FMNAT activity Res. activity): 0%; IC50 (SpnFADS RFK activity; RFK activity IC50, SpnFADS): 6 ± 1 µM; remaining activity at 100 µM (SpnFADS RFK activity; [11]): 25 ± 4%; MIC (S. pneumoniae ATCC 49619; Streptococcus pneumoniae, ATCC49619, 10 h, read-out: Minimal inhibitory concentration (MIC) S. pneumoniae): > 64 µM |
